Laboratory results from ChEMBL document CHEMBL5050844 (2019).

Key:
Type in all cases: functional
[1] = Induction of anti-CD3 antibodies-stimulated human CD8+ T cell activation in immunocompetent mouse assessed fold increase in CD25 expression at 45 mg/kg, po administered twice a day
[2] = Induction of anti-CD3 antibodies-stimulated human T cell activation in immunocompetent mouse assessed fold increase in TNFalpha secretion at 90 mg/kg, ip administered twice a day
[3] = Induction of anti-CD3 antibodies-stimulated human T cell activation in immunocompetent mouse assessed fold increase in IFN-gamma secretion at 90 mg/kg, ip administered thrice a day
[4] = Induction of anti-CD3 antibodies-stimulated human T cell activation in immunocompetent mouse assessed fold increase in IFN-gamma secretion at 90 mg/kg, ip administered twice a day
[5] = Induction of anti-CD3 antibodies-stimulated human T cell activation in immunocompetent mouse assessed fold increase in TNF-alpha secretion at 90 mg/kg, ip administered thrice a day
[6] = Induction of anti-CD3 antibodies-stimulated human CD8+ T cell activation in immunocompetent mouse assessed fold increase in CD25 expression at 90 mg/kg, ip administered twice a day
[7] = Induction of anti-CD3 antibodies-stimulated human T cell activation in immunocompetent mouse assessed fold increase in IL-2 secretion at 90 mg/kg, ip administered twice a day
[8] = Induction of anti-CD3 antibodies-stimulated human T cell activation in immunocompetent mouse assessed fold increase in IL-2 secretion at 90 mg/kg, ip administered thrice a day
Note: reference of the scale not given here.

Row | Structure (SMILES) | fold change (FC) [1] | fold change (FC) [2] | fold change (FC) [3] | fold change (FC) [4] | fold change (FC) [5] | fold change (FC) [6] | fold change (FC) [7] | fold change (FC) [8]
1 | Cc1cc(C(=O)Nc2cccc(C3(Cc4nncn4C)COC3)c2)nc(C2CC2)n1 | 1 |  |  |  |  |  |  | 
2 | C[C@H](Sc1nncn1C)c1cccc(NC(=O)c2cccc(C(F)(F)F)n2)c1 |  | >2.5 | 2.01 | 1 | >2.5 | <1 | >2.5 | >2.5
3 | Cn1cnnc1CC1(c2cccc(N3Cc4c(cc(CN5CCC6(CC6)C5)cc4C(F)(F)F)C3=O)c2)COC1 | 1 |  |  |  |  |  |  | 
4 | C[C@@H](Sc1nncn1C)c1cccc(NC(=O)c2cccc(C(F)(F)F)n2)c1 |  | 1 | <1 | <1 | <1 | <1 | <1 | <1
